The first assay concerns CDK4/6 protein. Briefly: Western-blot determination of CDK4/6 protein degradation (DC50) in T-47D cells. The class given is cell-based, human. The conditions noted are these: 24 h drug treatment, read-out: DC50(nM)/T-47D cell line.
With `CC(=O)c1c(C)c2cnc(Nc3ccc(N4CCN(C(=O)CS(=O)(=O)c5cccc6c5C(=O)N(C5CCC(=O)NC5=O)C6=O)CC4)cn3)nc2n(C2CCCC2)c1=O` (stereo not drawn) [SIAIS151056, 4-((2-(4-(6-((6-acetyl-8-cyclopentyl-5-methyl-7-oxo-7,8-dihydropyrido[2,3-d]pyrimidin-2-yl)amino)pyridin-3-yl)piperazin-1-yl)-2-oxoethyl)sulfonyl)-2-(2,6-dioxopiperidin-3-yl)isoindoline-1,3-dione], the DC50 fell in the range of 100 to 500 nM.
Regarding `CC(=O)c1c(C)c2cnc(Nc3ccc(N4CCN(C(=O)C[S+]([O-])c5cccc6c5C(=O)N(C5CCC(=O)NC5=O)C6=O)CC4)cn3)nc2n(C2CCCC2)c1=O` (stereo not drawn) [SIAIS151057, 4-((2-(4-(6-((6-acetyl-8-cyclopentyl-5-methyl-7-oxo-7,8-dihydropyrido[2,3-d]pyrimidin-2-yl)amino)pyridin-3-yl)piperazin-1-yl)-2-oxoethyl)sulfinyl)-2-(2,6-dioxopiperidin-3-yl)isoindoline-1,3-dione], the DC50 lay within 100 to 500 nM.

A further assay concerns SR cells. Briefly: Half inhibitory concentration (IC50) on ALK-positive SR cell proliferation (CCK-8). The class given is cell-based. As to conditions: Homo sapiens; SR cells, 72 h drug treatment, CCK-8; read-out: IC50 (nM)/ SR cell line. On the procedure: ALK-positive SR cells (human large cell immunoblastic lymphoma) were purchased from the American Type Culture Collection (ATCC); H3122 cells (human non-small cell lung cancer) were from the Shanghai University of Science and Technology Lin Haifan's research group.
The cells used in this present disclosure were cultured in a 37° C. incubator containing 5% CO2.
SR cells were seeded in 100 μL RPMI1640 complete medium at a density of 10,000 cells/well. 100 μL of the inoculated cells were treated with 0.5 μL diluted PROTAD compound of the present disclosure to be tested at 10 successively decreasing concentrations (starting at the highest concentration of 10 μM; 5-fold serial dilutions) After the cells were treated with the drug for 72 h, cell viability was determined according to the CCK-8 reagent operating instructions. The negative control was DMSO, and the positive control was a commercial inhibitor. After CCK-8 treatment for 2 h, the value of O.D.450 was measured using a microplate reader.
Take `CCc1cc2c(cc1N1CCC(N3CCN(C(=O)COCCSc4cccc5c4CN(C4CCC(=O)NC4=O)C5=O)CC3)CC1)C(C)(C)c1[nH]c3cc(C#N)ccc3c1C2=O` (stereo not drawn) [SIAIS249066, 8-(4-(4-(2-(2-((2-(2,6-dioxopiperidin-3-yl)-1-oxoisoindolin-4-yl)thio)ethoxy)acetyl)piperazin-1-yl)piperidin-1-yl)-9-ethyl-6,6-dimethyl-11-oxo-6,11-dihydro-5H-benzo[b]carbazole-3-carbonitrile]: the IC50 came to 0.17 ± 0.14 nM.
Consider `CCc1cc2c(cc1N1CCC(N3CCN(C(=O)COCCOCCSc4cccc5c4CN(C4CCC(=O)NC4=O)C5=O)CC3)CC1)C(C)(C)c1[nH]c3cc(C#N)ccc3c1C2=O` (stereo not drawn) [SIAIS249067, 8-(4-(4-(2-(2-(2-((2-(2,6-dioxopiperidin-3-yl)-1-oxoisoindolin-4-yl)thio)ethoxy)ethoxy)acetyl)piperazin-1-yl)piperidin-1-yl)-9-ethyl-6,6-dimethyl-11-oxo-6,11-dihydro-5H-benzo[b]carbazole-3-carbonitrile], for which the IC50 worked out at 0.38 ± 0.18 nM.
Take `CCc1cc2c(cc1N1CCC(N3CCN(C(=O)COCCOCCOCCSc4cccc5c4CN(C4CCC(=O)NC4=O)C5=O)CC3)CC1)C(C)(C)c1[nH]c3cc(C#N)ccc3c1C2=O` (stereo not drawn) [SIAIS249068, 8-(4-(4-(2-(2-(2-(2-((2-(2,6-dioxopiperidin-3-yl)-1-oxoisoindolin-4-yl)thio)ethoxy)ethoxy)ethoxy)acetyl)piperazin-1-yl)piperidin-1-yl)-9-ethyl-6,6-dimethyl-11-oxo-6,11-dihydro-5H-benzo[b]carbazole-3-carbonitrile]: the IC50 was determined as 0.33 ± 0.06 nM.
`CCc1cc2c(cc1N1CCC(N3CCN(C(=O)COCCOCCOCCOCCSc4cccc5c4CN(C4CCC(=O)NC4=O)C5=O)CC3)CC1)C(C)(C)c1[nH]c3cc(C#N)ccc3c1C2=O` (stereo not drawn) [SIAIS249069, 8-(4-(4-(14-((2-(2,6-dioxopiperidin-3-yl)-1-oxoisoindolin-4-yl)thio)-3,6,9,12-tetraoxatetradecanoyl)piperazin-1-yl)piperidin-1-yl)-9-ethyl-6,6-dimethyl-11-oxo-6,11-dihydro-5H-benzo[b]carbazole-3-carbonitrile]: the IC50 is 0.81 ± 0.28 nM.
The same measure, in the same setting: then `CCc1cc2c(cc1N1CCC(N3CCN(C(=O)COCCOCCOCCOCCOCCSc4cccc5c4CN(C4CCC(=O)NC4=O)C5=O)CC3)CC1)C(C)(C)c1[nH]c3cc(C#N)ccc3c1C2=O` (stereo not drawn) [SIAIS249070, 8-(4-(4-(17-((2-(2,6-dioxopiperidin-3-yl)-1-oxoisoindolin-4-yl)thio)-3,6,9,12,15-pentaoxaheptadecanoyl)piperazin-1-yl)piperidin-1-yl)-9-ethyl-6,6-dimethyl-11-oxo-6,11-dihydro-5H-benzo[b]carbazole-3-carbonitrile], with 0.43 ± 0.11 nM; and `CCc1cc2c(cc1N1CCC(N3CCN(C(=O)CSc4cccc5c4CN(C4CCC(=O)NC4=O)C5=O)CC3)CC1)C(C)(C)c1[nH]c3cc(C#N)ccc3c1C2=O` (stereo not drawn) [SIAIS262096, 8-(4-(4-(2-((2-(2,6-dioxopiperidin-3-yl)-1-oxoisoindolin-4-yl)thio)acetyl)piperazin-1-yl)piperidin-1-yl)-9-ethyl-6,6-dimethyl-11-oxo-6,11-dihydro-5H-benzo[b]carbazole-3-carbonitrile], with 0.22 ± 0.11 nM.
For the molecule `CCc1cc2c(cc1N1CCC(N3CCN(C(=O)CCSc4cccc5c4CN(C4CCC(=O)NC4=O)C5=O)CC3)CC1)C(C)(C)c1[nH]c3cc(C#N)ccc3c1C2=O` (stereo not drawn) [SIAIS262097, 8-(4-(4-(3-((2-(2,6-dioxopiperidin-3-yl)-1-oxoisoindolin-4-yl)thio)propanoyl)piperazin-1-yl)piperidin-1-yl)-9-ethyl-6,6-dimethyl-11-oxo-6,11-dihydro-5H-benzo[b]carbazole-3-carbonitrile], the IC50 is 3.89 ± 0.78 nM.
Consider `CCc1cc2c(cc1N1CCC(N3CCN(C(=O)CCCSc4cccc5c4CN(C4CCC(=O)NC4=O)C5=O)CC3)CC1)C(C)(C)c1[nH]c3cc(C#N)ccc3c1C2=O` (stereo not drawn) [SIAIS262098, 8-(4-(4-(4-((2-(2,6-dioxopiperidin-3-yl)-1-oxoisoindolin-4-yl)thio)butanoyl)piperazin-1-yl)piperidin-1-yl)-9-ethyl-6,6-dimethyl-11-oxo-6,11-dihydro-5H-benzo[b]carbazole-3-carbonitrile], for which the IC50 is 0.29 ± 0.21 nM.
On to `CCc1cc2c(cc1N1CCC(N3CCN(C(=O)CCCCSc4cccc5c4CN(C4CCC(=O)NC4=O)C5=O)CC3)CC1)C(C)(C)c1[nH]c3cc(C#N)ccc3c1C2=O` (stereo not drawn) [SIAIS262099, 8-(4-(4-(5-((2-(2,6-dioxopiperidin-3-yl)-1-oxoisoindolin-4-yl)thio)pentanoyl)piperazin-1-yl)piperidin-1-yl)-9-ethyl-6,6-dimethyl-11-oxo-6,11-dihydro-5H-benzo[b]carbazole-3-carbonitrile], for which the IC50 came to 0.93 ± 1.11 nM.
Still for that read-out and setting: the value for `CCc1cc2c(cc1N1CCC(N3CCN(C(=O)CCCCCSc4cccc5c4CN(C4CCC(=O)NC4=O)C5=O)CC3)CC1)C(C)(C)c1[nH]c3cc(C#N)ccc3c1C2=O` (stereo not drawn) [SIAIS262100, 8-(4-(4-(6-((2-(2,6-dioxopiperidin-3-yl)-1-oxoisoindolin-4-yl)thio)hexanoyl)piperazin-1-yl)piperidin-1-yl)-9-ethyl-6,6-dimethyl-11-oxo-6,11-dihydro-5H-benzo[b]carbazole-3-carbonitrile] was 0.52 ± 0.48 nM.
Turning to `CCc1cc2c(cc1N1CCC(N3CCN(C(=O)CCCCCCSc4cccc5c4CN(C4CCC(=O)NC4=O)C5=O)CC3)CC1)C(C)(C)c1[nH]c3cc(C#N)ccc3c1C2=O` (stereo not drawn) [SIAIS262101, 8-(4-(4-(7-((2-(2,6-dioxopiperidin-3-yl)-1-oxoisoindolin-4-yl)thio)heptanoyl)piperazin-1-yl)piperidin-1-yl)-9-ethyl-6,6-dimethyl-11-oxo-6,11-dihydro-5H-benzo[b]carbazole-3-carbonitrile], the IC50 was 2.94 ± 3.7 nM.
Consider `CCc1cc2c(cc1N1CCC(N3CCN(CCSc4cccc5c4C(=O)N(C4CCC(=O)NC4=O)C5=O)CC3)CC1)C(C)(C)c1[nH]c3cc(C#N)ccc3c1C2=O` (stereo not drawn) [SIAIS262158, 8-(4-(4-(2-((2-(2,6-dioxopiperidin-3-yl)-1,3-dioxoisoindolin-4-yl)thio)ethyl)piperazin-1-yl)piperidin-1-yl)-9-ethyl-6,6-dimethyl-11-oxo-6,11-dihydro-5H-benzo[b]carbazole-3-carbonitrile], for which the IC50 is 2.9 nM.
Still for that read-out and setting: the value for `CCc1cc2c(cc1N1CCC(N3CCN(CCCCCCSc4cccc5c4CN(C4CCC(=O)NC4=O)C5=O)CC3)CC1)C(C)(C)c1[nH]c3cc(C#N)ccc3c1C2=O` (stereo not drawn) [SIAIS262159, 8-(4-(4-(6-((2-(2,6-dioxopiperidin-3-yl)-1-oxoisoindolin-4-yl)thio)hexyl)piperazin-1-yl)piperidin-1-yl)-9-ethyl-6,6-dimethyl-11-oxo-6,11-dihydro-5H-benzo[b]carbazole-3-carbonitrile] was 1 nM; that for `CCc1cc2c(cc1N1CCC(NC(=O)CSc3cccc4c3CN(C3CCC(=O)NC3=O)C4=O)CC1)C(C)(C)c1[nH]c3cc(C#N)ccc3c1C2=O` (stereo not drawn) [SIAIS262161, N-(1-(3-cyano-9-ethyl-6,6-dimethyl-11-oxo-6,11-dihydro-5H-benzo[b]carbazol-8-yl)piperidin-4-yl)-2-((2-(2,6-dioxopiperidin-3-yl)-1-oxoisoindolin-4-yl)thio)acetamide] was 1.86 nM.
On the same count and under the same terms, the value for `CCc1cc2c(cc1N1CCC(NC(=O)CCCCCSc3cccc4c3CN(C3CCC(=O)NC3=O)C4=O)CC1)C(C)(C)c1[nH]c3cc(C#N)ccc3c1C2=O` (stereo not drawn) [SIAIS262162, N-(1-(3-cyano-9-ethyl-6,6-dimethyl-11-oxo-6,11-dihydro-5H-benzo[b]carbazol-8-yl)piperidin-4-yl)-6-((2-(2,6-dioxopiperidin-3-yl)-1-oxoisoindolin-4-yl)thio)hexanamide] was 11.3 nM; that for `CCc1cc2c(cc1N1CCC(NC(=O)COCCSc3cccc4c3CN(C3CCC(=O)NC3=O)C4=O)CC1)C(C)(C)c1[nH]c3cc(C#N)ccc3c1C2=O` (stereo not drawn) [SIAIS262163, N-(1-(3-cyano-9-ethyl-6,6-dimethyl-11-oxo-6,11-dihydro-5H-benzo[b]carbazol-8-yl)piperidin-4-yl)-2-(2-((2-(2,6-dioxopiperidin-3-yl)-1-oxoisoindolin-4-yl)thio)ethoxy)acetamide] was 1.6 nM.

The record behind these values is US12226424B2, “Target protein degradation compounds, their anti-tumor use, their intermediates and use of intermediates” (ShanghaiTech University, priority 2018, dated 2025).
